Tested on: cutaneous blood flow in the microvasculature of the hind foot pad
Test: Rat Blood Flow Assay (laser Doppler flowmetry, hind foot pad)
Format: in vivo
Method: α-adrenergic agonists that act on the sympathetic nervous system outflow can regulate cutaneous blood flow in response to temperature changes.
A laser Doppler microvascular perfusion monitor (Laser Doppler Flowmetry LDP technique), was used to monitor red blood cell perfusion in the microvasculature of the hind foot pad. The laser doppler flowmetry (LDP) is an OxyFlo Microvascular Perfusion Monitor, from Oxford Optronix LTd. UK.
Briefly, 15 μL of test articles were applied topically to one hind foot pad of anaesthetized CD rats and 15 μL of vehicle was applied to the other footpad. The hairless CD rats used are a spontaneous mutation model isolated from a Crl:CD(SD) colony in Charles River, in the late 1980s. Rederived in 1993 and subsequently transferred to Charles River, Raleigh, N.C. for barrier room production. […] Specific genetic analysis to identify the mutation has not been undertaken. Histopathology has determined the model is euthymic.
Thirty minutes following test article administration, dynamic blood flow changes were measured and recorded every 15 seconds for 4 minutes per temperature interval for 5 intervals (22° C.→37° C.→4° C.→37° C.→22° C.). Rats were placed on a 37° C. heat pad to increase their temperature and on an ice pad to decrease their temperature to 4° C. The level of blood flow in the two paws was compared. […] It has a significant difference.

In the case of `Brc1c(N=C2NCCN2)ccc2[nH]cnc12` [4-bromo-N-(imidazolidin-2-ylidene)-1H-benzimidazol-5-amine], the “effect on induced vessel dilation caused at 37° C.” value (topical application to the skin at a concentration of 0.5%, FIG. 1) was “inhibited the induced vessel dilation” and the “overall blood flow inhibition” value (topical, 15 μL to one hind foot pad of anaesthetized hairless CD rats vs vehicle on other footpad, measured 30 min after application over 5 temperature intervals (22→37→4→37→22° C.), P=0.014) was 17%.
